This is an account of results in ChEMBL document CHEMBL1130836, “Anti-AIDS agents. 31. Synthesis and anti-HIV activity of 4-substituted 3',4'-di-O-(-)-camphanoyl-(+)-cis-khellactone (DCK) thiolactone analogs” (Bioorg Med Chem Lett, 1998).

A short description of series [1]: Therapeutic index value was evaluated as the ratio of IC50/EC50. As to conditions: read-out: TI.
Series [2] has as its system H9. As to the kind of experiment: Anti-HIV activity was evaluated as the concentration required to inhibit the growth of uninfected H9 lymphocyte cells by 50%. In kind it is functional, cell-based. As to conditions: Homo sapiens.
Series [3] has as its system H9. As to the kind of experiment: Anti-HIV activity was evaluated as the concentration required to inhibit HIV-1 replication in H9 lymphocyte cells by 50%. In kind it is functional, cell-based. As to conditions: Homo sapiens.

Structures are written as SMILES. Where only a bound is given, the exact number is not on record here.

Take `CC1(C)Oc2ccc3ccc(=O)oc3c2[C@@H](OC(=O)C23CCC(C)(C(=O)O2)C3(C)C)[C@H]1OC(=O)C12CCC(C)(C(=O)O1)C2(C)C` (stereo partly drawn): the selectivity ratio in series [1] stood at 137000.

Regarding `Cc1cc(=S)oc2c3c(ccc12)OC(C)(C)[C@H](OC(=O)C12CCC(C)(C(=O)O1)C2(C)C)[C@@H]3OC(=O)C12CCC(C)(C(=O)O1)C2(C)C` (stereo partly drawn), the selectivity ratio in series [1] is greater than 21300. The IC50 (usually the point on the concentration scale where inhibition reaches its midpoint) in series [2] was greater than 153 µM. The midpoint of the response in series [3], the EC50, lay at 7.18 nM.

For `CC1(C)Oc2ccc3c(-c4ccccc4)cc(=S)oc3c2[C@@H](OC(=O)C23CCC(C)(C(=O)O2)C3(C)C)[C@H]1OC(=O)C12CCC(C)(C(=O)O1)C2(C)C` (stereo partly drawn), the selectivity ratio in series [1] was greater than 56.6. Further, in series [2], the IC50 was greater than 140 µM. Further, the EC50 (as a rule, the concentration giving half of the maximal effect) in series [3] was 2480 nM.

Turning to `CCCc1cc(=S)oc2c3c(ccc12)OC(C)(C)[C@H](OC(=O)C12CCC(C)(C(=O)O1)C2(C)C)[C@@H]3OC(=O)C12CCC(C)(C(=O)O1)C2(C)C` (stereo partly drawn), the selectivity ratio in series [1] was greater than 1150. This compound had an IC50 in series [2] greater than 148 µM. Besides, in series [3], the EC50 was 128 nM.

As for `CC1(C)Oc2ccc3ccc(=S)oc3c2[C@@H](OC(=O)C23CCC(C)(C(=O)O2)C3(C)C)[C@H]1OC(=O)C12CCC(C)(C(=O)O1)C2(C)C` (stereo partly drawn), in series [1], the selectivity ratio was greater than 5390. For the same compound, in series [2], the IC50 was greater than 156 µM. The same compound returned an EC50 in series [3] of 29 nM.
